Assay results from patent US11135320B2, “Radioligands for pretargeted pet imaging and methods of their therapeutic use” (priority 2015, dated 2021).
Values joined by “and” are separate entries in the source; they are usually repeats but may differ in a detail not shown here. Equal entries are not always repeated.

Test system: subcutaneous SW1222 xenografts (A33 antigen-expressing human colorectal carcinoma)
Assay: Pretargeted biodistribution with huA33-TCO and ^64Cu-tetrazine radioligand
Assay type: in vivo, athymic nude mice
Procedure: Female athymic nude mice bearing subcutaneous SW1222 (right shoulder) xenografts (100-150 mm^3, 18-21 days post-inoculation) were administered 100 μg (0.66 nmol) huA33-TCO (in 200 μL 0.9% sterile saline) via intravenous tail vein injection. […] The specific activity of the radiotracer was adjusted using cold ^natCu-Tz-SarAr such that the molar ratio of Tzinjected:huA^33injected=1:1. Animals (n=4 per group) were euthanized by CO2(g) asphyxiation at 1, 4, 12, and 24 h after injection. After asphyxiation, 13 tissues were removed, rinsed in water, dried in air for 5 min, weighed, and counted in a gamma counter calibrated for ^64Cu. Counts were converted into activity using a calibration curve generated from known standards. Count data were background- and decay-corrected to the time of injection, and the percent injected dose per gram (% ID/g) for each tissue sample was calculated by normalization to the total activity injected. Contents within the stomach, small intestine, and large intestine were not removed for the measurements.
Contents within the stomach, small intestine, and large intestine were not removed for the measurements. […] Zeglis, B. M. et al. “A pretargeted PET imaging strategy based on bioorthogonal Diels-Alder click chemistry.” Journal of Nuclear Medicine. 54, 1389-1396 (2013). ©2013 by the Society of Nuclear Medicine and Molecular Imaging, Inc.
Zeglis, B. M. et al. “A pretargeted PET imaging strategy based on bioorthogonal Diels-Alder click chemistry.” Journal of Nuclear Medicine. 54, 1389-1396 (2013). ©2013 by the Society of Nuclear Medicine and Molecular Imaging, Inc.
(§1) Female athymic nude mice bearing subcutaneous SW1222 (right shoulder) xenografts (100-150 mm^3, 18-21 days post-inoculation) were administered 100 μg (0.66 nmol) huA33-TCO (in 200 μL 0.9% sterile saline) via intravenous tail vein injection. After an accumulation interval of 48 h, the same mice were then administered ^64Cu-Tz-SarAr (300-350 μCi in 200 μL 0.9% sterile saline) via intravenous tail vein injection (t=0). The specific activity of the radiotracer was adjusted using cold ^natCu-Tz-SarAr such that the molar ratio of Tzinjected:huA^33injected=1:1. Animals (n=4 per group) were euthanized by CO2(g) asphyxiation at 1, 4, 12, and 24 h after injection. After asphyxiation, tissues were removed, rinsed in water, dried in air for 5 min, weighed, and counted in a gamma counter calibrated for ^64Cu. Counts were converted into activity using a calibration curve generated from known standards. Count data were background- and decay-corrected to the time of injection, and the percent injected dose per gram (% ID/g) for each tissue sample was calculated by normalization to the total activity injected. Contents within the stomach, small intestine, and large intestine were not removed for the measurements.
as §1, with “120” for “48”, “Contents within the stomach, small intestine, and large intestine were not removed for the measurements.” left out

[1] = 24 h accumulation interval, 1 h p.i.
[2] = 24 h accumulation interval, 4 h p.i.
[3] = 24 h accumulation interval, 12 h p.i.
[4] = 24 h accumulation interval, 24 h p.i.
[5] = 48 h accumulation interval, 1 h p.i.
[6] = 48 h accumulation interval, 4 h p.i.

NC12CNCCNCC(NCc3ccc(CNC(=O)CCCC(=O)NCc4ccc(-c5nncnn5)cc4)cc3)(CNCCNC1)CNCCNC2.[64Cu+2] [^64Cu-Tz-SarAr]
Blood activity concentration [1]: 4.2±0.8 % ID/g and 4.20 ± 0.80^a % ID/g | Bone activity concentration [1]: 0.67 ± 0.14 % ID/g | Heart activity concentration [1]: 1.81 ± 0.46 % ID/g | Kidney activity concentration [1]: 3.1±0.3 % ID/g and 3.08 ± 0.28 % ID/g | Large Intestine activity concentration [1]: 0.21±0.09 % ID/g | Liver activity concentration [1]: 1.60 ± 0.12 % ID/g | Lung activity concentration [1]: 1.65 ± 0.51 % ID/g | Muscle activity concentration [1]: 0.38 ± 0.06 % ID/g | Small Intestine activity concentration [1]: 0.88 ± 0.09 % ID/g | Spleen activity concentration [1]: 0.98 ± 0.25 % ID/g | Stomach activity concentration [1]: 0.73 ± 0.19 % ID/g | Tumor activity concentration [1]: 5.63±0.67 % ID/g | Tumor/Blood activity concentration ratio [1]: 1.34 ± 0.3 | Tumor/Bone activity concentration ratio [1]: 8.43 ± 2.07 | Tumor/Heart activity concentration ratio [1]: 3.11 ± 0.87 | Tumor/Kidney activity concentration ratio [1]: 1.83 ± 0.27 | Tumor/Large Intestine activity concentration ratio [1]: 26.88 ± 12.11 | Tumor/Liver activity concentration ratio [1]: 3.52 ± 0.49 | Tumor/Lung activity concentration ratio [1]: 3.40 ± 1.12 | Tumor/Muscle activity concentration ratio [1]: 14.9±2.9 and 14.92 ± 2.85 | Tumor/Small Intestine activity concentration ratio [1]: 6.42 ± 1.01 | Tumor/Spleen activity concentration ratio [1]: 5.75 ± 1.61 | Tumor/Stomach activity concentration ratio [1]: 7.75 ± 2.24 | Blood activity concentration [2]: 4.0±0.37 % ID/g | Bone activity concentration [2]: 0.34 ± 0.18 % ID/g | Heart activity concentration [2]: 1.45 ± 0.03 % ID/g | Kidney activity concentration [2]: 2.77 ± 0.57 % ID/g | Large Intestine activity concentration [2]: 0.48 ± 0.09 % ID/g | Liver activity concentration [2]: 1.45 ± 0.21 % ID/g | Lung activity concentration [2]: 1.55 ± 0.45 % ID/g | Muscle activity concentration [2]: 0.37 ± 0.07 % ID/g | Small Intestine activity concentration [2]: 0.62 ± 0.06 % ID/g | Spleen activity concentration [2]: 0.81 ± 0.20 % ID/g | Stomach activity concentration [2]: 0.56 ± 0.20 % ID/g | Tumor activity concentration [2]: 5.56±0.91 % ID/g and 5.6±0.9 % ID/g | Tumor/Blood activity concentration ratio [2]: 1.39 ± 0.26 | Tumor/Bone activity concentration ratio [2]: 16.15 ± 8.89 | Tumor/Heart activity concentration ratio [2]: 3.84 ± 0.63 | Tumor/Kidney activity concentration ratio [2]: 2.00 ± 0.53 | Tumor/Large Intestine activity concentration ratio [2]: 11.65 ± 2.99 | Tumor/Liver activity concentration ratio [2]: 3.83 ± 0.83 | Tumor/Lung activity concentration ratio [2]: 3.59 ± 1.20 | Tumor/Muscle activity concentration ratio [2]: 14.84 ± 3.69 | Tumor/Small Intestine activity concentration ratio [2]: 8.96 ± 1.71 | Tumor/Spleen activity concentration ratio [2]: 6.88 ± 2.01 | Tumor/Stomach activity concentration ratio [2]: 9.91 ± 3.85 | Blood activity concentration [3]: 2.19 ± 0.39 % ID/g | Bone activity concentration [3]: 0.23 ± 0.05 % ID/g | Heart activity concentration [3]: 0.84 ± 0.1 % ID/g | Kidney activity concentration [3]: 1.87 ± 0.42 % ID/g | Large Intestine activity concentration [3]: 0.20 ± 0.04 % ID/g | Liver activity concentration [3]: 1.33 ± 0.53 % ID/g | Lung activity concentration [3]: 1.24 ± 0.22 % ID/g | Muscle activity concentration [3]: 0.15 ± 0.01 % ID/g | Small Intestine activity concentration [3]: 0.35 ± 0.08 % ID/g | Spleen activity concentration [3]: 0.65 ± 0.17 % ID/g | Stomach activity concentration [3]: 0.21 ± 0.1 % ID/g | Tumor activity concentration [3]: 6.74±1.26 % ID/g | Tumor/Bone activity concentration ratio [3]: 29.8 ± 8.38 | Tumor/Heart activity concentration ratio [3]: 8.01 ± 1.77 | Tumor/Kidney activity concentration ratio [3]: 3.61 ± 1.05 | Tumor/Large Intestine activity concentration ratio [3]: 33.67±8.82 | Tumor/Liver activity concentration ratio [3]: 5.06 ± 2.23 | Tumor/Lung activity concentration ratio [3]: 5.43 ± 1.41 | Tumor/Small Intestine activity concentration ratio [3]: 19.37 ± 5.95 | Tumor/Spleen activity concentration ratio [3]: 10.34 ± 3.27 | Tumor/Stomach activity concentration ratio [3]: 31.76 ± 16.62 | Blood activity concentration [4]: 2.61 ± 0.20 % ID/g | Bone activity concentration [4]: 0.29 ± 0.05 % ID/g | Heart activity concentration [4]: 0.81 ± 0.04 % ID/g | Kidney activity concentration [4]: 1.9±0.4 % ID/g and 2.00 ± 0.24 % ID/g | Large Intestine activity concentration [4]: 0.26 ± 0.06 % ID/g | Liver activity concentration [4]: 1.51 ± 0.2 % ID/g | Lung activity concentration [4]: 0.99 ± 0.24 % ID/g | Muscle activity concentration [4]: 0.20 ± 0.07 % ID/g | Small Intestine activity concentration [4]: 0.45 ± 0.07 % ID/g | Spleen activity concentration [4]: 0.64 ± 0.04 % ID/g | Stomach activity concentration [4]: 0.28 ± 0.07 % ID/g | Tumor activity concentration [4]: 7.38 ± 2.02 % ID/g | Tumor/Blood activity concentration ratio [4]: 2.83±0.81 | Tumor/Bone activity concentration ratio [4]: 25.46 ± 8.22 | Tumor/Heart activity concentration ratio [4]: 9.10 ± 2.54 | Tumor/Kidney activity concentration ratio [4]: 3.68 ± 1.1 | Tumor/Large Intestine activity concentration ratio [4]: 28.86 ± 10.28 | Tumor/Liver activity concentration ratio [4]: 4.87 ± 1.48 | Tumor/Lung activity concentration ratio [4]: 7.44 ± 2.74 | Tumor/Muscle activity concentration ratio [4]: 37.37±16.1 and 37.37 ± 16.06 | Tumor/Small Intestine activity concentration ratio [4]: 16.33 ± 5.12 | Tumor/Spleen activity concentration ratio [4]: 11.45 ± 3.20 | Tumor/Stomach activity concentration ratio [4]: 26.44 ± 9.89 | activity concentration in all other non-target tissues (24 h accumulation interval, later time points, other than blood and kidneys): less than 1.5 % ID/g | Blood activity concentration [5]: 2.15 ± 0.5 % ID/g | Bone activity concentration [5]: 0.23 ± 0.05 % ID/g | Heart activity concentration [5]: 1.05 ± 0.24 % ID/g | Kidney activity concentration [5]: 1.98 ± 0.26 % ID/g | Large Intestine activity concentration [5]: 0.29 ± 0.09 % ID/g | Liver activity concentration [5]: 1.79 ± 0.09 % ID/g | Lung activity concentration [5]: 1.68 ± 0.09 % ID/g | Muscle activity concentration [5]: 0.22 ± 0.11 % ID/g | Small Intestine activity concentration [5]: 0.54 ± 0.15 % ID/g | Spleen activity concentration [5]: 0.84 ± 0.27 % ID/g | Stomach activity concentration [5]: 0.39 ± 0.17 % ID/g | Tumor activity concentration [5]: 4.49 ± 0.44 % ID/g | Tumor/Blood activity concentration ratio [5]: 2.09 ± 0.52 | Tumor/Bone activity concentration ratio [5]: 19.48 ± 4.94 | Tumor/Heart activity concentration ratio [5]: 4.27 ± 1.05 | Tumor/Kidney activity concentration ratio [5]: 2.27 ± 0.37 | Tumor/Large Intestine activity concentration ratio [5]: 15.48 ± 5.25 | Tumor/Liver activity concentration ratio [5]: 2.51 ± 0.27 | Tumor/Lung activity concentration ratio [5]: 2.67 ± 0.3 | Tumor/Muscle activity concentration ratio [5]: 20.34 ± 10.25 | Tumor/Small Intestine activity concentration ratio [5]: 8.35 ± 2.48 | Tumor/Spleen activity concentration ratio [5]: 5.34 ± 1.79 | Tumor/Stomach activity concentration ratio [5]: 11.57 ± 5.25 | Blood activity concentration [6]: 1.78±0.28 % ID/g | Bone activity concentration [6]: 0.32 ± 0.12 % ID/g | Heart activity concentration [6]: 1.08 ± 0.32 % ID/g | Kidney activity concentration [6]: 1.83 ± 0.57 % ID/g | Large Intestine activity concentration [6]: 0.41 ± 0.11 % ID/g | Liver activity concentration [6]: 1.27 ± 0.19 % ID/g | Lung activity concentration [6]: 1.53 ± 0.28 % ID/g | Muscle activity concentration [6]: 0.24 ± 0.08 % ID/g | Small Intestine activity concentration [6]: 0.33 ± 0.1 % ID/g | Spleen activity concentration [6]: 0.6 ± 0.09 % ID/g | Stomach activity concentration [6]: 0.27 ± 0.18 % ID/g | Tumor activity concentration [6]: 5.2±1.4 % ID/g and 5.15 ± 1.42 % ID/g | Tumor/Blood activity concentration ratio [6]: 2.9 ± 0.92 | Tumor/Bone activity concentration ratio [6]: 15.86 ± 7.12 | Tumor/Heart activity concentration ratio [6]: 4.75 ± 1.92 | Tumor/Kidney activity concentration ratio [6]: 2.81 ± 1.16 | Tumor/Large Intestine activity concentration ratio [6]: 12.68 ± 4.87 | Tumor/Liver activity concentration ratio [6]: 4.06 ± 1.27 | Tumor/Lung activity concentration ratio [6]: 3.37 ± 1.11 | Tumor/Muscle activity concentration ratio [6]: 21.84 ± 9.2 | Tumor/Small Intestine activity concentration ratio [6]: 15.71 ± 6.48 | Tumor/Spleen activity concentration ratio [6]: 8.55 ± 2.69 | Tumor/Stomach activity concentration ratio [6]: 18.92 ± 13.29
